Source: patent publication US20170157150A1, “ORAL DOSAGE FORM COMPRISING TRI-SUBSTITUTED GLYCEROL COMPOUNDS” (Alphaptose GmbH, priority 2006, published 2017)

Key:
LNCaP cells = assay: Flow cytometry of annexin V-PE positive / 7-AAD negative cells (apoptotic cells); format: cell-based, human
Experimental: (§1) In a further approach, 10 μM 1-O-octadecyl-2-O-methyl-glycero-3-phosphocholine (final concentration; “CHEM”) and (ionizing) radiation (5 Gray units; “RT”) were administered simultaneously to the LNCaP cells but the subsequent incubation period was extended to 24 hours. Apoptosis was measured using the Apo-ONE™ Homogenous Caspase-3/7 Assay as described above and expressed as relative fluorescence units (RFLU). The percentage of apoptotic cells was determined by flow cytometric analysis of annexin V-PE positive-stained and 7-AAD (7-Amino ActinomycinD) negative-stained cells (both purchased from BD Biosciences, San Jose, Calif., USA) according to established standard protocols. The data represent means±SEM from three independent experiments.
(§2) Next, the interaction of 1-O-octadecyl-2-O-methyl-glycero-3-phosphocholine administration (“CHEM”) and androgen deprivation (“AD”) was investigated. LNCaP cells were deprived of androgen for two days by charcoal absorption of serum according to established procedures well known in the art. CHEM was added in a final concentration of 5 μM and 10 μM, respectively.
(§3) Apoptosis was measured using the Apo-ONE™ Homogenous Caspase-3/7 Assay as described above and expressed as relative fluorescence units (RFLU). The percentage of apoptotic cells was determined via annexin V-PE/7-AAD staining as described above. The caspase-3/7 assay and annexin staining were performed 22 hours after CHEM treatment.

[1] = system: LNCaP androgen-sensitive human prostate adenocarcinoma cells; assay: Apo-ONE Homogenous Caspase-3/7 Assay (apoptosis); format: cell-based
Experimental: (§4) FIG. 3. Depicts the in vitro effects of 1-O-octadecyl-2-O-methyl-glycero-3-phosphocholine (final concentration 10 μM), (ionizing) radiation (absorbed dose of 5 Gray units; indicated as “RT”), and a combination thereof on programmed cell death (apoptosis) and the survival rate of LNCaP androgen-sensitive human prostate adenocarcinoma cells. Apoptosis was determined using the Apo-ONE™ Homogenous Caspase-3/7 Assay, Promega, Inc., Madison, Wis., USA according to the manufacturer's instructions. The percentage of living cancer cells was estimated by means of trypan blue dye exclusion as described (Freshney, R. I. (1994) Culture of Animal Cells: A Manual of Basic Technique. 3rd Ed. Wiley-Liss. New York. USA). The cells were exposed to radiation six hours after (FIG. 3A), concomitantly with (FIG. 3B), or six hours before administration of 1-O-octadecyl-2-O-methyl-glycero-3-phospho-choline (FIG. 3C). The caspase assay was performed 12 hours after exposure to radiation. The respective data shown represent the average of two independent experiments.
(§5) First, the in vitro effects of 1-O-octadecyl-2-O-methyl-glycero-3-phosphocholine, (ionizing) radiation, and a combination thereof on programmed cell death (apoptosis) and the survival rate of LNCaP androgen-sensitive human prostate adenocarcinoma cells were measured. The LNCaP cell line was established from a metastatic lesion of the adenocarcinoma. The cells were treated with a final concentration of 10 μM 1-O-octadecyl-2-O-methyl-glycero-3-phosphocholine and (ionizing) radiation corresponding to an absorbed dose of 5 Gray units.
(§6) Apoptosis was determined using the Apo-ONE™ Homogenous Caspase-3/7 Assay, Promega, Inc., Madison, Wis., USA according to the manufacturer's instructions. The percentage of living tumor cells was estimated by means of trypan blue dye exclusion as described (Freshney, R. I. (1994) Culture of Animal Cells: A Manual of Basic Technique. 3rd Ed. Wiley-Liss. New York. USA)
(§7) The cells were exposed to radiation six hours after (FIG. 3A), concomitantly with (FIG. 3B), or six hours before administration of 1-O-octadecyl-2-O-methyl-glycero-3-phospho-choline (FIG. 3C). The caspase assay was performed 12 hours after exposure to radiation. The respective data shown represent the average of two independent experiments.
as §1, §2, §3

[2] = system: LNCaP androgen-sensitive human prostate adenocarcinoma cells; assay: Trypan blue dye exclusion, percentage of living tumor cells; format: cell-based; conditions: for survival rate: untreated controls about 86%
Experimental: as §4, §5, §6, §7

LNCaP C4-2 cells = assay: Apoptosis after CHEM+RT in androgen-insensitive cells; format: cell-based; conditions: data not shown
[3] = system: LNCaP cells grown orthotopically in the prostates of nude mice; assay: Orthotopic LNCaP prostate tumor model, serum PSA and tumor volume (MRI); format: in vivo; conditions: 30 mg/kg body weight/day intraperitoneally for 15 days + radiation 5 Gray on day 7; preliminary study
Experimental: FIG. 4. Depicts the in vivo effects of 1-O-octadecyl-2-O-methyl-glycero-3-phosphocholine (30 mg/kg body weight/day administered intraperitoneally for 15 days: FIG. 4A), (ionizing) radiation (absorbed dose of 5 Gray units administered on day 7; FIG. 4C), and a combination thereof (FIG. 4B) on LNCaP cells grown orthotopically in the prostates of nude mice (seven mice/group). Tumor growth was assessed via determining the serum level of the prostate-specific antigen (PSA) using a commercially available test kit as well as the tumor volume by means of magnetic resonance imaging.
Additionally, in a preliminary study the in vivo effects of 1-O-octadecyl-2-O-methyl-glycero-3-phosphocholine (ionizing) radiation, and a combination thereof on LNCaP cells grown orthotopically in the prostates of nude mice (seven mice/group) was investigated.
1-O-octadecyl-2-O-methyl-glycero-3-phosphocholine was administered intraperitoneally in a dose of 30 mg/kg body weight/day administered intraperitoneally for 15 days (FIG. 4A; studies using different routes of administration such as orally or by gavage are currently under way). […] Tumor growth was assessed via determining the serum level of the prostate-specific antigen (PSA) using a commercially available test kit as well as the tumor volume by means of magnetic resonance imaging.

LNCaP-Res cells = assay: Apoptosis after CHEM+RT in androgen-insensitive cells; format: cell-based; conditions: data not shown
[4] = Differential scanning calorimetry, excipient compatibility; format: physicochemical; conditions: crystalline compound, heating 5 K/min up to 300° C., cooling 1 K/min down to −30° C.
Experimental: FIG. 1. Depicts the results of differential scanning calorimetry (DCS) analyses for determining excipient compatibility using a Netzsch DSC 204 apparatus (Netzsch Gerätebau GmbH, Selb, Germany) with a heating rate of 5 K/min up to 300° C. and a cooling rate of 1 K/min down to −30° C. (temperature onset at room temperature (approx. 20° C.)). The below-mentioned samples were tested: crystalline 1-O-octadecyl-2-O-methyl-glycero-3-phosphocholine alone (black curves), the following excipients alone (red curves): lactose (FIG. 1A), crospovidone (FIG. 1B), starch 1500 (FIG. 1C), siliciumdioxide (FIG. 1D), as well as magnesium stearate (FIG. 1E), and binary mixtures of 1-O-octadecyl-2-O-methyl-glycero-3-phosphocholine and each excipient (green curves).
Differential scanning calorimetry (DCS) analyses were performed for determining the compatibility of different excipients for formulating tablets according to the present invention.
DSC is a thermoanalytical technique in which the difference in the amount of heat required to increase the temperature of a sample and reference is measured as a function of temperature. Both the sample and reference are maintained at nearly the same temperature throughout the experiment. Generally, the temperature program for a DSC analysis is designed such that the temperature increases or decreases linearly as a function of time. […]

[5] = 10 μM CHEM + RT (5 Gray) simultaneously, 24 hours incubation, means±SEM, p<0.0001 vs CHEM and RT
[6] = AD + R1881 (two days prior to CHEM) + 5 μM CHEM, 22 hours
[7] = AD + R1881 (two days prior to CHEM) + 10 μM CHEM, 22 hours

CCCCCCCCCCCCCCCCCCOCC(COP(=O)([O-])OCC[N+](C)(C)C)OC (stereo not drawn) [1-O-octadecyl-2-O-methyl-glycero-3-phosphocholine]
% Annexin V-PE pos. cells (LNCaP cells; [5]): 31.7 ± 1.0 % | % Annexin V-PE pos. cells (LNCaP cells; 10 μM CHEM alone, 24 hours incubation, means±SEM, three experiments, control 3.6 ± 0.2): 18.6 ± 1.0% | % Annexin V-PE pos. cells (LNCaP cells; [6]): 14.6% | % Annexin V-PE pos. cells (LNCaP cells; [7]): 21.6% | % Annexin V-PE pos. cells (LNCaP cells; Contr. cells + 5 μM CHEM, 22 hours after treatment, Contr. 9.8): 13.0% | % Annexin V-PE pos. cells (LNCaP cells; Contr. cells + 10 μM CHEM, 22 hours after treatment, Contr. 9.8): 17.5% | % Annexin V-PE pos. cells (LNCaP cells; androgen deprivation (AD) two days + 5 μM CHEM, 22 hours, AD alone 12.6): 15.4% | % Annexin V-PE pos. cells (LNCaP cells; androgen deprivation (AD) two days + 10 μM CHEM, 22 hours, AD alone 12.6): 27.4% | apoptotic response in androgen-deprived LNCaP cells (LNCaP cells; androgen-deprived cells, 5 μM and 10 μM): dose-dependent significant increase | reversal of the apoptotic effect by synthetic androgen added prior to treatment (LNCaP cells; androgen-deprived cells, R1881 added two days prior): not reversed | Caspase-3/7 activity (RFLU) [1, 5]: 1514 ± 102 RFLU | Caspase-3/7 activity (RFLU) ([1]; 10 μM CHEM alone, 24 hours incubation, means±SEM, three experiments, control 193 ± 39): 580 ± 207 RFLU | extent of apoptosis, increase in cells only exposed to the chemical as compared to combined treatment ([1]; 10 μM compound six hours after radiation (5 Gray), FIG. 3C): about 25% | increase in apoptotic response (caspase-3/7 assay) ([1]; 10 μM compound six hours prior to radiation (5 Gray), combined treatment, assay 12 hours after radiation, FIG. 3A): > 2.5 fold | Caspase-3/7 activity (RFLU) [1, 6]: 453 RFLU | Caspase-3/7 activity (RFLU) [1, 7]: 962 RFLU | Caspase-3/7 activity (RFLU) ([1]; Contr. cells + 5 μM CHEM, 22 hours after treatment, Contr. 235): 380 RFLU | Caspase-3/7 activity (RFLU) ([1]; Contr. cells + 10 μM CHEM, 22 hours after treatment, Contr. 235): 436 RFLU | Caspase-3/7 activity (RFLU) ([1]; androgen deprivation (AD) two days + 5 μM CHEM, 22 hours, AD alone 81): 126 RFLU | Caspase-3/7 activity (RFLU) ([1]; androgen deprivation (AD) two days + 10 μM CHEM, 22 hours, AD alone 81): 115 RFLU | survival rate of tumor cells ([2]; 10 μM compound alone, FIG. 3A experiment, untreated controls about 85%): about 60% | survival rate ([2]; 10 μM compound alone, FIG. 3B experiment): about 50% | survival of cells ([2]; 10 μM compound alone, FIG. 3C experiment): about 45% | survival rate ([2]; 10 μM compound concomitantly with radiation (5 Gray), FIG. 3B): about 55% | survival of cells ([2]; 10 μM compound six hours after radiation (5 Gray), combined treatment, FIG. 3C): about 40% | survival of tumor cells ([2]; 10 μM compound six hours prior to radiation (5 Gray), combined treatment, FIG. 3A, untreated controls about 85%): about 45% | apoptosis in CHEM+RT treated cells (LNCaP C4-2 cells): enhancement of apoptosis | PSA serum levels, combined treatment compared to either individual treatment [3]: significant decrease | apoptosis in CHEM+RT treated cells (LNCaP-Res cells): enhancement of apoptosis

C[C@]1(O)CC[C@H]2[C@@H]3CCC4=CC(=O)CCC4=C3C=C[C@@]21C [R1881]
% Annexin V-PE pos. cells (LNCaP cells; AD + R1881, no CHEM, AD alone 12.6): 7.0% | Caspase-3/7 activity (RFLU) ([1]; AD + R1881, no CHEM, AD alone 81): 130 RFLU

OC[C@H]1O[C@@H](O[C@H]2[C@H](O)[C@@H](O)C(O)O[C@@H]2CO)[C@H](O)[C@@H](O)[C@H]1O (stereo partly drawn) [lactose]
interaction of excipient with 1-O-octadecyl-2-O-methyl-glycero-3-phosphocholine (DSC thermogram of binary mixture) [4]: show such interactions

magnesium stearate
interaction of excipient with 1-O-octadecyl-2-O-methyl-glycero-3-phosphocholine (DSC thermogram of binary mixture) [4]: dominate the thermogram
